These results are taken from patent US20220378046A1, “EFFECTS OF NF-kB SIGNALING INHIBITORS ON BED BUG RESISTANCE TO ORALLY PROVISIONED ENTOMOPATHOGENIC BACTERIA” (South Dakota Board of Regents, priority 2021, published 2022).

For data set [1], the system named is Cimex lectularius. As to the kind of experiment: Three-day survivorship of bed bugs fed P. entomophila alone or combined with NF-kB signaling inhibitors. Conditions: for effect on mortality during P. entomophila infection: 10 μg/mL inhibitor in blood meal with P. entomophila, three days, relative to bacterium alone; for mortality at 10 µg/mL: Cimex lectularius, P. entomophila combined with 10 μg/mL inhibitor in blood meal. The data set is classed as in vivo. The method, then: (§1) For the following non-limiting Examples, the Cincinnati SRL strain of Cimex lectularius was used for the population of bed bugs. This strain was derived from a population of individuals collected by technicians from Sierra Research Laboratories, Inc. (Modesto, Calif.) in 2007 and has been maintained under laboratory conditions since this time. Colonies were maintained at the University of South Dakota in plastic jars containing corrugated cardboard harborages at 28 +/−1° C. and 60-70% relative humidity on a 12:12 photoperiod. The colonies were fed aseptically collected defibrinated rabbit blood (Hemostat Laboratories, Dixon, Calif.) once per week using an artificial membrane system (Hemotek Ltd., Blackburn, United Kingdom).
The effect of the combination treatment of NF-kB signaling inhibitors and bacterial entomopathogens on bed bug resistance to the bacterial entomopathogens was analyzed. To determine if NF-kB signaling inhibitors could reduce resistance to orally provisioned entomopathogenic bacteria, cultures of each bacterium were grown overnight by shaking at room temperature. The following day, cultures of P. entomophila were standardized to an OD600 value of 2.3 (3×10^8 colony forming units/mL) and cultures of B. thuringiensis isralensis were standardized to an OD600 value of 2.2 (7×10^7 colony forming units/mL), based on their overnight growth across replicates. P. entomophila was then further diluted 1:100 in defibrinated rabbit blood, whereas B. thuringiensis israelensis was further diluted 1:50 in defibrinated rabbit blood due to its generally lower virulence. The evaluated inhibitors or DMSO diluent were added to the blood meal containing diluted bacteria to a final concentration of 10 ug/mL. The groups of bed bugs fed DMSO diluent in blood were included as controls. Groups of bed bugs consisting of roughly even numbers of adult male and female bed bugs that had not blood fed for at least seven days were provided access to treated blood meals using the artificial membrane system (Hemotek Ltd.) until fully engorged. Short-term mortality was then monitored over a period of three days. Three independent biological replicates with 10-14 insects per group were carried out and cumulative survival curves were compared using the Gehan-Breslow-Wilcoxon test.

The subject of data set [2] is Pseudomonas entomophila. As to the kind of experiment: Direct effects of NF-kB signaling inhibitors on growth of P. entomophila cultures (OD600). In kind it is cell-based. Conditions: 10 μg/mL; LB medium; shaken overnight at room temperature. The source says:
(§2) The effects of NF-kB signaling inhibitors were further assessed on growth of bacterial entomopathogen cultures. Two bacterial entomopathogens were used in the present example. The Gram-positive bacterium B. thuringiensis israelensis was obtained from Carolina Biological Supply (Burlington, N.C., USA). This bacterium was investigated due to its potential activity against bed bugs when ingested. The Gram-negative bacterium P. entomophila was obtained from the German Collection of Microorganisms and Cell Cultures (DSMZ, Braunschweig, Germany). Stocks of these bacteria were grown overnight in Luria-Bertani (LB) medium on a shaker at room temperature.
(§3) To determine if the inhibitors had any direct impact on the growth of entomopathogenic bacteria prior to their administration in vivo, cultures of each bacterium were inoculated into LB medium and individual inhibitors were added to the cultures at a final concentration of 10 μg/mL. Cultures containing equal volumes of DMSO diluent served as controls. After shaking overnight at room temperature, growth of bacteria in the presence of inhibitors was quantified by measuring optical density of the cultures at 600 nm (OD600) on a spectrophotomer. OD600 values of cultures containing inhibitors were then normalized to DMSO controls. Three replicates were conducted with each inhibitor and growth was compared to controls (set at 1) using a one-sample t-test.

In data set [3] the test system is Bacillus thuringiensis israelensis. As to the kind of experiment: Direct effects of NF-kB signaling inhibitors on growth of B. thuringiensis israelensis cultures (OD600). Conditions: 10 μg/mL; LB medium; shaken overnight at room temperature. The data set is classed as cell-based.
Description: as §2, §3

Data set [4] relates to Cimex lectularius. As to the kind of experiment: Three-day survivorship of bed bugs fed NF-kB signaling inhibitors combined with B. thuringiensis israelensis. In kind it is in vivo. The settings on record: 10 μg/mL inhibitor in blood meal with bacteria; three days; Gehan-Breslow test p=0.86. The method, then:
as §1
The effect of the combination treatment of NF-kB signaling inhibitors and bacterial entomopathogens on bed bug resistance to the bacterial entomopathogens was analyzed. To determine if NF-kB signaling inhibitors could reduce resistance to orally provisioned entomopathogenic bacteria, cultures of each bacterium were grown overnight by shaking at room temperature. […] The evaluated inhibitors or DMSO diluent were added to the blood meal containing diluted bacteria to a final concentration of 10 ug/mL. […] Short-term mortality was then monitored over a period of three days. […]

Data set [5] has as its system Cimex lectularius. As to the kind of experiment: Estimation of P. entomophila load in vivo in bed bugs (CFU/insect). Conditions: 10 μg/mL inhibitor with P. entomophila in blood meal, 24 hours post-infection. The method, then: The bacterial load of entomopathogen was further analyzed to determine whether enhanced mortality during P. entomophila infection was associated with increased bacterial load (reduced resistance). For this analysis, adult male bed bugs that had not fed for at least seven days were provided access to blood meals containing P. entomophila with or without 10 μg/mL of IKK16 using the artificial membrane system (Hemotek Ltd.) until fully engorged. The two treatments were prepared as described in Example 3. After 24 hours, live and dead bed bugs from each infected treatment group were collected. Individual insects were surface sterilized by rinsing with 10% bleach and 70% ethanol and homogenized in sterile phosphate buffered saline (PBS). Homogenates were then serial diluted in PBS and plated on LB agar plates to estimate the load of P. entomophila bacteria expressed as colony forming units (CFU) per insect after 24 hours of incubation at 28° C. Because culturable bed bug commensals in the gut are minimal and slow growing, this methodology allows for the specific quantification of P. entomophila. Two independent biological replicates were conducted (15 individual insects examined per treatment group in total). The insects in each treatment were further subdivided into dead and live categories for analysis. […]

Data set [6] concerns Rhodnius prolixus. Conditions: cited from earlier work.
Data set [7] deals with Cimex lectularius. As to the kind of experiment: Toxicity of NF-kB signaling inhibitors fed as lone agents to bed bugs (seven-day survivorship). In kind it is in vivo. Conditions: 5 μg/mL or 10 μg/mL in blood meal; 7 days; chi-square test p=0.54. The method, then:
as §1
The bed bugs were fed four individual small molecule inhibitors of NF-kB signaling (BMS345541, IKK16, IMD0354, Takinib) alone or in combination with two different bacterial entomopathogens (Pseudomonas entomophila and Bacillus thuringiensis israelensis). […] The effects on both bed bug mortality and bacterial growth were assessed.
The toxicity of NF-kB signaling inhibitors was analyzed by feeding the inhibitors as lone agents to bed bugs. In particular, the four individual small molecule inhibitors of NF-kB signaling (BMS345541, IKK16, IMD0354, Takinib) were analyzed. […] Mortality was then monitored regularly over a period of seven days. […]

Each structure is given as a SMILES string. Like-named read-outs stand apart in the source and are kept apart here.

With `Cc1ccc2nc(NCCN)c3ncc(C)n3c2c1` [BMS345541, N1-(1,8-dimethylimidazo[1,2-a]quinoxalin-4-yl)ethane-1,2-diamine], the “effect on mortality during P. entomophila infection” value in data set [1] was “little to no effect”. The “growth of P. entomophila relative to DMSO control (OD600)” value in data set [2] is “did not affect the growth”. For the same compound, the “growth of B. thuringiensis israelensis relative to DMSO control (OD600)” value in data set [3] is on record as “did not affect the growth”. The “effect on mortality during infection with B. thuringiensis” value in data set [4] was “little to no effect”.

With `O=C(c1ccc(Nc2nccc(-c3cc4ccccc4s3)n2)cc1)N1CCC(N2CCCC2)CC1` [IKK16, (4-((4-(Benzo[b]thiophen-2-yl)pyrimidin-2-yl)amino)phenyl)(4-(pyrrolidin-1-yl)piperidin-1-yl)methanone], in data set [1], the “effect on mortality during P. entomophila infection” value is listed as “significantly increased”. The mortality at 10 µg/mL in data set [1] (24 h, read-out: mortality at day 1) amounted to 74.3%; in data set [1] (48 h, read-out: mortality at day 2), 80%; in data set [1] (72 h, read-out: mortality at day 3), 82.9%. In addition, in data set [5], the “effect on tolerance (mortality with lower bacterial loads) in vivo” value is “did not affect tolerance”. The “P. entomophila load in live bed bugs versus live counterparts not treated with the inhibitor” value in data set [5] (ANOVA p=0.021) is on record as “higher loads”. Further, the “growth of P. entomophila relative to DMSO control (OD600)” value in data set [2] is recorded as “did not affect the growth”. Also, the “growth of B. thuringiensis israelensis relative to DMSO control (OD600)” value in data set [3] is recorded as “inhibited the growth”.

In the case of `O=C(Nc1cc(C(F)(F)F)cc(C(F)(F)F)c1)c1cc(Cl)ccc1O` [IMD0354, N-(3,5-bis(trifluoromethyl)phenyl)-5-chloro-2-hydroxybenzamide], in data set [6], the “expression of antimicrobial peptides” value is recorded as “suppressed expression”; the “mortality during both bacterial and parasitic infections” value is given as “increased mortality”. Besides, in data set [7], the “direct toxicity to bed bugs (mortality relative to DMSO controls)” value is “not directly toxic”. Moreover, the “growth of P. entomophila relative to DMSO control (OD600)” value in data set [2] is “inhibited the growth”. Further, the “growth of B. thuringiensis israelensis relative to DMSO control (OD600)” value in data set [3] was “inhibited the growth”.

Take `CCCn1/c(=N/C(=O)c2cccc(C(N)=O)c2)[nH]c2ccccc21` [Takinib, 3-N-(1-propylbenzimidazol-2-yl)benzene-1,3-dicarboxamide]: the “effect on mortality during P. entomophila infection” value in data set [1] is on record as “little to no effect”. Further, the “growth of P. entomophila relative to DMSO control (OD600)” value in data set [2] is on record as “did not affect the growth”. The “growth of B. thuringiensis israelensis relative to DMSO control (OD600)” value in data set [3] is reported as “did not affect the growth”. Also, in data set [4], the “effect on mortality during infection with B. thuringiensis” value is reported as “little to no effect”.
